Assay results published in article PMC12652692, “Synthesis and In Vitro Anticancer Evaluation of Novel Phosphonium Derivatives of Chrysin” (International Journal of Molecular Sciences, 2025).

Columns and labels:
Experiment in all cases: NCI60 five-dose screen
Type in all cases: cell-based
NCI-H226 = conditions: Homo sapiens; NCI-H226, Non-small-Cell Lung Cancer
Procedure, shortened: (§1)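 Cells in RPMI 1640 with 5% FBS and 2 mM L-glutamine were plated for 24 h, then exposed to five concentrations (10-fold or ½ log dilutions) for 48 h at 37 °C. Protein was measured by SRB staining at 515 nm; GI50 is the concentration halving net protein increase versus control.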

SK-MEL-5 = conditions: Homo sapiens; SK-MEL-5, Melanoma
Procedure, shortened: as §1

SW-620 = conditions: Homo sapiens; SW-620, Colon Cancer
Procedure, shortened: as §1

| SMILES | GI50 (NCI-H226) [µM] | GI50 (SK-MEL-5) [µM] | GI50 (SW-620) [µM] |
| --- | --- | --- | --- |
| O=c1cc(-c2ccccc2)oc2cc(OCCCC[P+](c3ccccc3)(c3ccccc3)c3ccccc3)cc(O)c12 [3a] | 0.354 | 0.166 | 0.343 |
| Cc1ccc([P+](CCCCOc2cc(O)c3c(=O)cc(-c4ccccc4)oc3c2)(c2ccc(C)cc2)c2ccc(C)cc2)cc1 [3b] | 0.277 | 0.153 | 0.354 |
| COc1ccc([P+](CCCCOc2cc(O)c3c(=O)cc(-c4ccccc4)oc3c2)(c2ccc(OC)cc2)c2ccc(OC)cc2)cc1 [3c] | 0.606 | 0.331 | 0.351 |
| O=c1cc(-c2ccccc2)oc2cc(OCCCC[P+](c3ccc(F)cc3)(c3ccc(F)cc3)c3ccc(F)cc3)cc(O)c12 [3d] | 1.82 | 1.51 | 1.46 |
| O=c1cc(-c2ccccc2)oc2cc(OCCCC[P+](C3CCCCC3)(C3CCCCC3)C3CCCCC3)cc(O)c12 [3e] | 1.1 | 0.369 | 0.649 |
| COc1c(C)cc([P+](CCCCOc2cc(O)c3c(=O)cc(-c4ccccc4)oc3c2)(c2cc(C)c(OC)c(C)c2)c2cc(C)c(OC)c(C)c2)cc1C [3f] | 0.249 | 0.168 | 0.323 |
| Cc1ccccc1[P+](CCCCOc1cc(O)c2c(=O)cc(-c3ccccc3)oc2c1)(c1ccccc1C)c1ccccc1C [3g] | 0.399 | 0.198 | 0.274 |
| O=c1cc(-c2ccccc2)oc2cc(OCCCC[P+](c3ccccc3)(c3ccccc3)c3ccccn3)cc(O)c12 [3h] | 1.56 | 0.278 | 0.901 |
